Experimental data taken from patent US9809623B2, “α4β7 peptide monomer and dimer antagonists” (Protagonist Therapeutics, Inc., priority 2014, dated 2017).
Bridge positions count the residues as written; N and C are the ends. Square brackets hold non-standard residues; d marks the D form. Peptide text beside a SMILES is read from it. Phe(3,4-Cl2) = N[C@@H](Cc1ccc(Cl)c(Cl)c1)C(=O)O; Phe(2,4-Cl2) = N[C@@H](Cc1ccc(Cl)cc1Cl)C(=O)O; 1Nal = N[C@@H](Cc1cccc2ccccc12)C(=O)O; 2Nal = N[C@@H](Cc1ccc2ccccc2c1)C(=O)O; d1Nal = N[C@H](Cc1cccc2ccccc12)C(=O)O; d2Nal = N[C@H](Cc1ccc2ccccc2c1)C(=O)O; NMeR = CN[C@@H](CCCNC(=N)N)C(=O)O; hPhe = N[C@@H](CCc1ccccc1)C(=O)O; Pen = CC(C)(S)[C@H](N)C(=O)O; dNMeK = CN[C@H](CCCCN)C(=O)O

Target: T1, rh integrin α4β7 (Homo sapiens, UniProt P13612+P26010)
T1 construct: purchased R&D Systems 5397-A30
Experiment: α4β7-MAdCAM Competition ELISA
Format: binding
Details: Table 3-B, Potency (α4β7); range classes; read-out: α4β7 ELISA IC50
Description: A nickel coated plate (Pierce #15442) was coated with rh integrin α4β7 (R&D Systems #5397-A30) at 800 ng/well and incubated at room temperature with shaking for 1 hr. The solution was then removed by shaking and blocked with assay buffer (50 mM Tris-HCl pH7.6, 150 mM NaCl, 1 mM MnCl2 or MgCl2, 0.05% Tween-20 and 0.5% BSA) at 250 ul/well. The plate was then incubated at room temperature for 1 hr. Each well was washed 3 times with wash buffer (50 mM Tris-HCl pH7.6, 100 mM NaCl, 1 mM MnCl2 or MgCl2, 0.05% Tween-20). To each well was added 25 ul of a serial dilution (3-fold dilutions in assay buffer) of peptide starting at 20 μM. 25 ul of recombinant human MAdCAM-1 (R&D Systems #6056-MC) was then added to each well at a fixed concentration 20 nM. The final starting peptide concentration was 10 μM, and the final MAdCAM-1 concentration was 10 nM. The plates were then incubated at room temperature for 1 hr to reach binding equilibrium. The wells were then washed three times with wash buffer. 50 ul of mouse anti-human IgG1-HRP (Invitrogen # A10648) diluted in 1:2000 in assay buffer was then added to each well. The wells were incubated at room temperature for 45 min with shaking. The wells were then washed 3 times with wash buffer. 100 ul of 3,3′,5,5′-Tetramethylbenzidine (TMB) were then added to each well and closely observe during development time. The reaction was stopped with 2N H2SO4 and absorbance was read at 450 nm.
TMB is a chromogenic substrate suitable for use in ELISA procedures, which utilize horseradish peroxidase conjugates. This substrate produces a soluble end product that is blue in color and can be read spectrophotometrically at 370 or 655 nm. The reaction maybe stopped with 2 M H2S04, resulting in a yellow solution that is read at 450 nm. Each tablet contains 1 mg of TMB substrate. To prepare TMB Substrate Solution, dissolve one 3,3′,5,5′-tetramethylbenzidine tablet in 1 ml of DMSO and add to 9 ml of 0.05 M Phosphate-Citrate Buffer, pH 5.0. Add 2 μl of fresh 30% hydrogen peroxide (Product No. H 1009) per 10 ml of substrate buffer solution, immediately prior to use.

T1 sequence (P13612 34-977 limits assumed): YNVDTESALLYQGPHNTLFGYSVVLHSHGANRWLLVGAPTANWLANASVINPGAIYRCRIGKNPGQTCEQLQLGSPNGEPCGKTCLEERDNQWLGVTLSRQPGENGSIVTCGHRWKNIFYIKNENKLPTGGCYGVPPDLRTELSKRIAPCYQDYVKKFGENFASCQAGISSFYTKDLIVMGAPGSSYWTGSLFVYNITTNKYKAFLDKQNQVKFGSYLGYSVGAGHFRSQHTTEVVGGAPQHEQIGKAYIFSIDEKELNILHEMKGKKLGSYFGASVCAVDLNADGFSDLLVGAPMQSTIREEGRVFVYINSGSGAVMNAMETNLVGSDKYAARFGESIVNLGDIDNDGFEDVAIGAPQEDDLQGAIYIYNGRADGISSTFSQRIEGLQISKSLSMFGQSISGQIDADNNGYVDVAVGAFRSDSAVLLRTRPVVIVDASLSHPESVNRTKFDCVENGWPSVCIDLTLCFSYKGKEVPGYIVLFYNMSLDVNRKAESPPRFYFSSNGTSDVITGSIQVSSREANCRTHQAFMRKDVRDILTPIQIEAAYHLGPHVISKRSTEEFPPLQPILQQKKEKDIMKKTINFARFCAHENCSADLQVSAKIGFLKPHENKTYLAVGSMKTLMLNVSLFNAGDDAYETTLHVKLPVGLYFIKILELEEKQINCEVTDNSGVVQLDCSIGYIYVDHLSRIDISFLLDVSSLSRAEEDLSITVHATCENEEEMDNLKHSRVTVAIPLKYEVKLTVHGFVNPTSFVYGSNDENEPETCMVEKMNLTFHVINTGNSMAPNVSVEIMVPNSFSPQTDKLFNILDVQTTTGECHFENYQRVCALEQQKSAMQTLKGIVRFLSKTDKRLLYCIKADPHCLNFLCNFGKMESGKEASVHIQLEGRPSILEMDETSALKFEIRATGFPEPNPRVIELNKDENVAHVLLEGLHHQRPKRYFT
T1 sequence (P26010 20-723 limits assumed): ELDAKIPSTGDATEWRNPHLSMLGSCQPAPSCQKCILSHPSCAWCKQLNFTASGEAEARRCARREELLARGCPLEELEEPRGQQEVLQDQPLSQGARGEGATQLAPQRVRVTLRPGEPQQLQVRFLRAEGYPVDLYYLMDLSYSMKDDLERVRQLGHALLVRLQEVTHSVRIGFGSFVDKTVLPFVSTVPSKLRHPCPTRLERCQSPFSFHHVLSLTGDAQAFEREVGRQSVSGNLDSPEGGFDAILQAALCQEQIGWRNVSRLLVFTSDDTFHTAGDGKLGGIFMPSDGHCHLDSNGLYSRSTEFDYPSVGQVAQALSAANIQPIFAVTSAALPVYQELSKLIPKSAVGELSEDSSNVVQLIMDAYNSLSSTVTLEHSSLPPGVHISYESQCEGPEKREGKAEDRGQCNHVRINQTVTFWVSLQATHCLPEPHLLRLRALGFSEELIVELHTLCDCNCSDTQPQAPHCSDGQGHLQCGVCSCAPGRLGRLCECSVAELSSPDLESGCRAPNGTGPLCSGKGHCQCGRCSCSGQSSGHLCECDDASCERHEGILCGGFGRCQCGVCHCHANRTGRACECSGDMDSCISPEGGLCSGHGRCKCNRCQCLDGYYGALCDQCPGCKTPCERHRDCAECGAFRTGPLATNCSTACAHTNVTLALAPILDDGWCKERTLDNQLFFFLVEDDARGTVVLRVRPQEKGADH

Compound	IC50
CC(=O)N[C@@H]1C(=O)N(C)[C@@H](CCCNC(=N)N)C(=O)N[C@@H](CO)C(=O)N[C@@H](CC(=O)O)C(=O)N[C@@H]([C@@H](C)O)C(=O)N[C@@H](CC(C)C)C(=O)N[C@H](C(=O)N[C@H](Cc2cccc3ccccc23)C(=O)N[C@@H](CCC(=O)O)C(=O)N[C@H](CCCCN)C(N)=O)C(C)(C)SSC1(C)C [compound 10] (Ac-[Pen][NMeR]SDTL[Pen][d1Nal]E[dK]-NH2; disulfide 1-7)	10 to 25 nM
CC(=O)N[C@@H]1C(=O)N(C)[C@@H](CCCNC(=N)N)C(=O)N[C@@H](CO)C(=O)N[C@@H](CC(=O)O)C(=O)N[C@@H]([C@@H](C)O)C(=O)N[C@@H](CC(C)C)C(=O)N[C@H](C(=O)N[C@H](Cc2ccc3ccccc3c2)C(=O)N[C@@H](CCC(=O)O)C(=O)N[C@H](CCCCN)C(N)=O)C(C)(C)SSC1(C)C [compound 11] (Ac-[Pen][NMeR]SDTL[Pen][d2Nal]E[dK]-NH2; disulfide 1-7)	25 to 50 nM
CC(=O)N[C@@H]1C(=O)N(C)[C@@H](CCCNC(=N)N)C(=O)N[C@@H](CO)C(=O)N[C@@H](CC(=O)O)C(=O)N[C@@H]([C@@H](C)O)C(=O)N[C@@H](CC(C)C)C(=O)N[C@H](C(=O)N[C@@H](Cc2cccc3ccccc23)C(=O)N[C@H](CCC(=O)O)C(=O)N(C)[C@H](CCCCN)C(N)=O)C(C)(C)SSC1(C)C [compound 12] (Ac-[Pen][NMeR]SDTL[Pen][1Nal][dE][dNMeK]-NH2; disulfide 1-7)	25 to 50 nM
CC(=O)N[C@@H]1C(=O)N(C)[C@@H](CCCNC(=N)N)C(=O)N[C@@H](CO)C(=O)N[C@@H](CC(=O)O)C(=O)N[C@@H]([C@@H](C)O)C(=O)N[C@@H](CC(C)C)C(=O)N[C@H](C(=O)N[C@@H](CCc2ccccc2)C(=O)N[C@H](CCC(=O)O)C(=O)N[C@H](CCCCN)C(N)=O)C(C)(C)SSC1(C)C [compound 14] (Ac-[Pen][NMeR]SDTL[Pen][hPhe][dE][dK]-NH2; disulfide 1-7)	25 to 50 nM
CC(=O)N[C@@H]1C(=O)N(C)[C@@H](CCCNC(=N)N)C(=O)N[C@@H](CO)C(=O)N[C@@H](CC(=O)O)C(=O)N[C@@H]([C@@H](C)O)C(=O)N[C@@H](CC(C)C)C(=O)N[C@H](C(=O)N[C@@H](Cc2ccc3ccccc3c2)C(=O)N[C@@H](CCC(=O)O)C(=O)N(C)[C@H](CCCCN)C(N)=O)C(C)(C)SSC1(C)C [compound 15] (Ac-[Pen][NMeR]SDTL[Pen][2Nal]E[dNMeK]-NH2; disulfide 1-7)	< 10 nM
CC(=O)N[C@@H]1C(=O)N(C)[C@@H](CCCNC(=N)N)C(=O)N[C@@H](CO)C(=O)N[C@@H](CC(=O)O)C(=O)N[C@@H]([C@@H](C)O)C(=O)N[C@@H](CC(C)C)C(=O)N[C@H](C(=O)N[C@@H](Cc2ccc(Cl)cc2Cl)C(=O)N[C@@H](CCC(=O)O)C(=O)N[C@H](CCCCN)C(N)=O)C(C)(C)SSC1(C)C [compound 16] (Ac-[Pen][NMeR]SDTL[Pen][Phe(2,4-Cl2)]E[dK]-NH2; disulfide 1-7)	10 to 25 nM
CC(=O)N[C@@H]1C(=O)N(C)[C@@H](CCCNC(=N)N)C(=O)N[C@@H](CO)C(=O)N[C@@H](CC(=O)O)C(=O)N[C@@H]([C@@H](C)O)C(=O)N[C@@H](CC(C)C)C(=O)N[C@H](C(=O)N[C@@H](Cc2ccc(Cl)c(Cl)c2)C(=O)N[C@@H](CCC(=O)O)C(=O)N[C@H](CCCCN)C(N)=O)C(C)(C)SSC1(C)C [compound 17] (Ac-[Pen][NMeR]SDTL[Pen][Phe(3,4-Cl2)]E[dK]-NH2; disulfide 1-7)	10 to 25 nM
CC(=O)N[C@@H]1C(=O)N(C)[C@@H](CCCNC(=N)N)C(=O)N[C@@H](CO)C(=O)N[C@@H](CC(=O)O)C(=O)N[C@@H]([C@@H](C)O)C(=O)N[C@@H](CC(C)C)C(=O)N[C@H](C(=O)N[C@@H](CCc2ccccc2)C(=O)N[C@@H](CCC(=O)O)C(=O)N[C@H](CCCCN)C(N)=O)C(C)(C)SSC1(C)C [compound 19] (Ac-[Pen][NMeR]SDTL[Pen][hPhe]E[dK]-NH2; disulfide 1-7)	10 to 25 nM
